Source: patent US7329422B2, “Pharmaceutical compositions” (priority 2002, dated 2008)

Key:
[1] = test system: human breast cancer cells; test: purified B-2 compound on human breast cancer cells grown in tissue culture; type: cell-based
Description: (§1) Test were made of the purified B-2 compound on human breast cancer cells grown in tissue culture.

human liver cancer cells = test: purified B-2 compound on human liver cancer cells in tissue culture; type: cell-based; details: visually evident
Description: as §1
The experiment was repeated using human liver cancer cells.

## Oc1cc(O)c2c(c1)O[C@H](c1ccc(O)c(O)c1)[C@H](O)[C@H]2c1c(O)cc(O)c2c1O[C@H](c1ccc(O)c(O)c1)[C@H](O)C2 [purified B-2 compound, procyanidin B-2]
[1]
  number of cells in treated samples: marked reduction
Human liver cancer cells
  number of cancer cells: substantially reduced
